Values belong to the compound of their own block, whether it stands above or below them.
Key:
[1] = system: human neutrophils [인간 호중구]; settings: through human endothelial cells and epithelial cells, e.g. human intestinal epithelial cell line T84; literature; cited from earlier work
[2] = Relative chemical stability of polymorph I over 4 weeks under storage (HPLC purity); format: physicochemical; settings: for HPLC purity: week 0; for HPLC purity at 336 h / HPLC purity at 672 h: solid storage; for HPLC purity at 336 h: week 2; for HPLC purity at 672 h: week 4
[3] = Hygroscopicity: water sorption/desorption in an automated water sorption analyser, 25 ℃; format: physicochemical

Compound: CCCCC[C@H](O)/C=C/C=C\C=C\C=C\[C@@H](O)[C@@H](O)CCCC(=O)O [리폭신 A4]
inhibition of transmigration of human neutrophils [1]: 억제한다

HPLC purity ([2]; 25 ℃, dry): 97.36%
HPLC purity ([2]; 25 ℃/60%RH): 97.36%
HPLC purity ([2]; 40 ℃, dry): 97.36%
HPLC purity ([2]; 40 ℃/75%RH): 97.36%
HPLC purity at 336 h ([2]; 25 ℃, dry): 97.5%
HPLC purity at 672 h ([2]; 25 ℃, dry): 97.5%
HPLC purity at 336 h ([2]; 25 ℃/60%RH): 97.5%
HPLC purity at 672 h ([2]; 25 ℃/60%RH): 97.7%
HPLC purity at 336 h ([2]; 40 ℃, dry): 96.9%
HPLC purity at 672 h ([2]; 40 ℃, dry): 96.4%
HPLC purity at 336 h ([2]; 40 ℃/75%RH): 95.9%
HPLC purity at 672 h ([2]; 40 ℃/75%RH): 92.5%
moisture adsorbed ([3]; 80% relative humidity, corresponds to the dihydrate of the substance): ~8%
hygroscopicity ([3]; in words): 흡습성
reversibility of hydration ([3]; in words): 가역적
relative humidity at which polymorph I transforms into the hydrate ([3]; relative humidity): > 60%
Compound: O=C(O)COC[C@H](O)[C@H](O)/C=C/C=C/C#C/C=C/[C@H](O)COc1ccc(F)cc1 [다형체 I, 2-((2S,3R,4E,6E,10E,12S)-13-(4-플루오로페녹시)-2,3,12-트리히드록시트리데카-4,6,10-트리엔-8-이닐옥시)아세트산]

relative humidity at which transformation into polymorph I is observed ([3]; relative humidity, reversal of hydration): < 40%
Compound: O=C(O)COC[C@H](O)[C@H](O)/C=C/C=C/C#C/C=C/[C@H](O)COc1ccc(F)cc1 [수화물, 2-((2S,3R,4E,6E,10E,12S)-13-(4-플루오로페녹시)-2,3,12-트리히드록시트리데카-4,6,10-트리엔-8-이닐옥시)아세트산]

Source: KR20110010755A, “결정질 2-((2s,3r,4e,6e,10e,12s)-13-(4-플루오로페녹시)-2,3,12-(트리히드록시트리데카-4,6,10-트리엔-8-이닐)옥시)아세트산의 무수물 및 수화물 형태” (바이엘 쉐링 파마 악티엔게젤샤프트, priority 2008, dated 2009)
